According to US9266892B2, “Fused pyrazoles as FGFR inhibitors” (Incyte Corporation, priority 2012, dated 2016):

Key:
Type in all cases: biochemical
FGFR1 = target: T1, FGFR1 (Homo sapiens, UniProt P11362); assay: FGFR Enzymatic Assay (FRET peptide phosphorylation), FGFR1; settings: FGFR1 0.02 nM, ATP 210 μM
T1 construct: purchased Millipore or Invitrogen
Experimental: (§1) The inhibitor potency of the Example compounds was measured in an enzyme assay that measures peptide phosphorylation using FRET measurements to detect product formation. Inhibitors were serially diluted in DMSO and a volume of 0.5 μL was transferred to the wells of a 384-well plate. For FGFR3, a 10 μL volume of FGFR3 enzyme (Millipore) diluted in assay buffer (50 mM HEPES, 10 mM MgCl2, 1 mM EGTA, 0.01% Tween-20, 5 mM DTT, pH 7.5) was added to the plate and pre-incubated for 5-10 minutes. Appropriate controls (enzyme blank and enzyme with no inhibitor) were included on the plate. The assay was initiated by the addition of a 10 μL solution containing biotinylated EQEDEPEGDYFEWLE peptide substrate (SEQ ID NO: 1) and ATP (final concentrations of 500 nM and 140 μM respectively) in assay buffer to the wells. The plate was incubated at 25° C. for 1 hr. The reactions were ended with the addition of 10 μL/well of quench solution (50 mM Tris, 150 mM NaCl, 0.5 mg/mL BSA, pH˜7.8, 30 mM EDTA with Perkin Elmer Lance Detection Reagents at 3.75 nM Eu-antibody PY20 and 180 nM APC-Streptavidin). The plate was allowed to equilibrate for 1 hour before scanning the wells on a PheraStar plate reader (BMG Labtech). The enzymes were purchased from Millipore or Invitrogen.
(§2) FGFR1 and FGFR2 were measured under equivalent conditions with the following changes in enzyme and ATP concentrations: FGFR1, 0.02 nM and 210 μM, respectively and FGFR2, 0.01 nM and 100 μM, respectively.
(§3) GraphPad prism3 was used to analyze the data. The IC50 values were derived by fitting the data to the equation for a sigmoidal dose-response with a variable slope. Y=Bottom+(Top−Bottom)/(1+10^((Log IC50−X)*HillSlope)) where X is the logarithm of concentration and Y is the response.

FGFR3 = target: T2, FGFR3 (Homo sapiens, UniProt P22607); assay: FGFR Enzymatic Assay (FRET peptide phosphorylation), FGFR3; settings: ATP 140 μM, 25° C. for 1 hr
T2 construct: purchased Millipore
Experimental: as §1, §3

FGFR2 = target: T3, FGFR2 (Homo sapiens, UniProt P21802); assay: FGFR Enzymatic Assay (FRET peptide phosphorylation), FGFR2; settings: FGFR2 0.01 nM, ATP 100 μM
T3 construct: purchased Millipore or Invitrogen
Experimental: as §1, §2, §3

Measured: IC50

T1 sequence (P11362 22-822): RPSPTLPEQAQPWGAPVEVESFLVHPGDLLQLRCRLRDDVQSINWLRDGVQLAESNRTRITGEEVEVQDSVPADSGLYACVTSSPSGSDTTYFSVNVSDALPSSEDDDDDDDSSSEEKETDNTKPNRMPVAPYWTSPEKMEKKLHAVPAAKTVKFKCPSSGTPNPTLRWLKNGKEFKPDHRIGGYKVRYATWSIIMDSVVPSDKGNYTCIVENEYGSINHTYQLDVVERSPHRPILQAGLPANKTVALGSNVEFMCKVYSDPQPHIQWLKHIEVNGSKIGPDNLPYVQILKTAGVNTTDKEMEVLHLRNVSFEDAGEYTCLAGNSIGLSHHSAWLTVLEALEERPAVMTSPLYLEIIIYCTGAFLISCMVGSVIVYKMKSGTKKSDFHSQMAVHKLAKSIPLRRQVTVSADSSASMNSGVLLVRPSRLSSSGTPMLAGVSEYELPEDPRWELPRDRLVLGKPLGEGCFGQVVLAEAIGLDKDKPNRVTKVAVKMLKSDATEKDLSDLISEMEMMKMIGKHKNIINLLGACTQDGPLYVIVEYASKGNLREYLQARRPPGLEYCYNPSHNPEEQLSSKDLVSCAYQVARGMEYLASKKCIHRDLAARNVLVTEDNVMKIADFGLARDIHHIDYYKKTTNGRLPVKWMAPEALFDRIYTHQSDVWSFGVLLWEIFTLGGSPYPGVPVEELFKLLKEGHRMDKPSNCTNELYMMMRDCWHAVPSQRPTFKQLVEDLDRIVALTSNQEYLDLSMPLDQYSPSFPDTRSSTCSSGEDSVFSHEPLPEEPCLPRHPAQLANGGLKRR
T3 sequence (P21802 22-821): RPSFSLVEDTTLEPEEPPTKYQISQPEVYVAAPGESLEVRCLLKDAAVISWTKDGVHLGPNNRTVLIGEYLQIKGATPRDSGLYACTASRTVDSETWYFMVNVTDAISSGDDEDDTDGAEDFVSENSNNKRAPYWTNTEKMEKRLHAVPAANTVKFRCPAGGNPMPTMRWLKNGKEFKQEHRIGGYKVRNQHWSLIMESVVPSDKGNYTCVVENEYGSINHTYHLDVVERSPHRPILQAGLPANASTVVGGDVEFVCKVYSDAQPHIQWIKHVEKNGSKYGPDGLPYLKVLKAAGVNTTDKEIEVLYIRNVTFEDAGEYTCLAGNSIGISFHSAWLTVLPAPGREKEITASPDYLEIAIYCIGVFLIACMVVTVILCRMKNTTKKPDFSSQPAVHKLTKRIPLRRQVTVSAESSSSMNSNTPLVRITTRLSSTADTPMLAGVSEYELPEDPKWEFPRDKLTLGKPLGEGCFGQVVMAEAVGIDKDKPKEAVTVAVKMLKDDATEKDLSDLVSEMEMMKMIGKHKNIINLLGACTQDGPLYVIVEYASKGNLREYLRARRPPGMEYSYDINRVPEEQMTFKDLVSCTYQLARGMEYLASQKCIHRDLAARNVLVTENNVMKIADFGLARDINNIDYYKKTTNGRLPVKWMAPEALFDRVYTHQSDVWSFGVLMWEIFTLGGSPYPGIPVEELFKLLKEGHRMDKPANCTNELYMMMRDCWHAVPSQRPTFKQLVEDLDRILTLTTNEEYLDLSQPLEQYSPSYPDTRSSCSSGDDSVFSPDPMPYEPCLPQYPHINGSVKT
T2 sequence (P22607 23-806): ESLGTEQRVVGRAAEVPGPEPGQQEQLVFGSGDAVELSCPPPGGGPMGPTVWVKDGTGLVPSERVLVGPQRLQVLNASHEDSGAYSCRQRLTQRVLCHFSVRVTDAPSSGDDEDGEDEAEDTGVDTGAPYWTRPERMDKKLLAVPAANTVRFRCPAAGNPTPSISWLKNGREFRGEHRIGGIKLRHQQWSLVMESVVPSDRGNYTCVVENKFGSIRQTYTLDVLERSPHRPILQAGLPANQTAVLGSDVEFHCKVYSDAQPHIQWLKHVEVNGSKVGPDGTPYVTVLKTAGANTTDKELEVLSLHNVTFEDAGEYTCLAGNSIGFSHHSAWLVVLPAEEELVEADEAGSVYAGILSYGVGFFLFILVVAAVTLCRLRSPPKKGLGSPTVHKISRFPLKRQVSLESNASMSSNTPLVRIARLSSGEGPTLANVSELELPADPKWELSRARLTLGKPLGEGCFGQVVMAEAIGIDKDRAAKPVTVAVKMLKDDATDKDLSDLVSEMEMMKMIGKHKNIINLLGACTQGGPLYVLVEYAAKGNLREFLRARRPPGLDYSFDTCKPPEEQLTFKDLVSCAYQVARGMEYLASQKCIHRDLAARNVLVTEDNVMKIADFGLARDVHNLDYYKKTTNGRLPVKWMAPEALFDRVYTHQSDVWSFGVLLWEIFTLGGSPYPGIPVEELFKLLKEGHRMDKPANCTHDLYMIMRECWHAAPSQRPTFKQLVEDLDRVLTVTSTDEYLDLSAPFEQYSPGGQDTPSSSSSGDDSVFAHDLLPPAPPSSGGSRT

COc1cc(OC)c(F)c(-c2cc3[nH]nc(-c4cnn(C)c4)c3cn2)c1F [Example 91, 6-(2,6-Difluoro-3,5-dimethoxyphenyl)-3-(1-methyl-1H-pyrazol-4-yl)-1H-pyrazolo[4,3-c]pyridine]
< 0.1 µM: all assays above

COc1cc(OC)c(F)c(-c2ncc3c(-c4ccc5c(c4)CN(C4CCN(C)CC4)C5=O)n[nH]c3n2)c1F [Example 79, 5-[6-(2,6-Difluoro-3,5-dimethoxyphenyl)-1H-pyrazolo[3,4-d]pyrimidin-3-yl]-2-(1-methylpiperidin-4-yl)isoindolin-1-one]
< 0.1 µM: all assays above

COc1cc(OC)c(F)c(-c2ncc3c(-c4ccc5c(c4)CCN(S(C)(=O)=O)C5)n[nH]c3n2)c1F [Example 13, 6-[6-(2,6-Difluoro-3,5-dimethoxyphenyl)-1H-pyrazolo[3,4-d]pyrimidin-3-yl]-2-(methylsulfonyl)-1,2,3,4-tetrahydroisoquinoline]
< 0.1 µM: all assays above

COc1cc(OC)c(Cl)c(-c2cc3[nH]nc(-c4cnn(C(C)C#N)c4)c3cn2)c1Cl (stereo not drawn) [Example 33, 2-{4-[6-(2,6-Dichloro-3,5-dimethoxyphenyl)-1H-pyrazolo[4,3-c]pyridin-3-yl]-1H-pyrazol-1-yl}propanenitrile]
< 0.1 µM: all assays above

COc1cc(OC)c(Cl)c(-c2ncc3c(-c4ccc5c(c4)CCN(C)C5=O)n[nH]c3n2)c1Cl [Example 9, 6-[6-(2,6-Dichloro-3,5-dimethoxyphenyl)-1H-pyrazolo[3,4-d]pyrimidin-3-yl]-2-methyl-3,4-dihydroisoquinolin-1(2H)-one]
< 0.1 µM: all assays above

COc1cc(OC)c(F)c(-c2cc3[nH]nc(-c4ccc5c(c4)CC(C(=O)N4CCN(C)CC4)O5)c3cn2)c1F (stereo not drawn) [Example 24, 6-(2,6-Difluoro-3,5-dimethoxyphenyl)-3-{2-[(4-methylpiperazin-1-yl)carbonyl]-2,3-dihydro-1-benzofuran-5-yl}-1H-pyrazolo[4,3-c]pyridine]
< 0.1 µM: all assays above

COc1cc(OC)c(F)c(-c2cc3[nH]nc(-c4ccc5c(c4)CN([C@H]4CC[C@H](O)CC4)C5=O)c3cn2)c1F [Example 62, 5-[6-(2,6-Difluoro-3,5-dimethoxyphenyl)-1H-pyrazolo[4,3-c]pyridin-3-yl]-2-(trans-4-hydroxycyclohexyl)isoindolin-1-one]
< 0.1 µM: all assays above

COc1cc(OC)c(F)c(-c2cc3[nH]nc(-c4ccc5c(c4)CN(C(C)CO)C5=O)c3cn2)c1F (stereo not drawn) [Example 63, 5-[6-(2,6-Difluoro-3,5-dimethoxyphenyl)-1H-pyrazolo[4,3-c]pyridin-3-yl]-2-(2-hydroxy-1-methylethyl)isoindolin-1-one]
< 0.1 µM: all assays above

CCN1Cc2cc(-c3n[nH]c4cc(-c5c(F)c(OC)cc(OC)c5F)ncc34)ccc2C1=O [Example 52, 5-[6-(2,6-Difluoro-3,5-dimethoxyphenyl)-1H-pyrazolo[4,3-c]pyridin-3-yl]-2-ethylisoindolin-1-one]
< 0.1 µM: all assays above

COc1cc(OC)c(F)c(-c2ncc3c(-c4cnn(C(C)C#N)c4)n[nH]c3n2)c1F (stereo not drawn) [Example 76, 2-{4-[6-(2,6-Difluoro-3,5-dimethoxyphenyl)-1H-pyrazolo[3,4-d]pyrimidin-3-yl]-1H-pyrazol-1-yl}propanenitrile]
< 0.1 µM: all assays above

COc1cc(OC)c(F)c(-c2cc3[nH]nc(-c4ccc5c(c4)CN(CC(F)(F)F)C5=O)c3cn2)c1F [Example 60, 5-[6-(2,6-Difluoro-3,5-dimethoxyphenyl)-1H-pyrazolo[4,3-c]pyridin-3-yl]-2-(2,2,2-trifluoroethyl)isoindolin-1-one]
< 0.1 µM: all assays above

COc1cc(OC)c(F)c(-c2cc3[nH]nc(-c4ccc5c(c4)CC(C(=O)N(C)C)O5)c3cn2)c1F (single isomer, unassigned) [Example 84, 5-[6-(2,6-Difluoro-3,5-dimethoxyphenyl)-1H-pyrazolo[4,3-c]pyridin-3-yl]-N,N-dimethyl-2,3-dihydro-1-benzofuran-2-carboxamide]
< 0.1 µM: all assays above

COc1cc(OC)c(Cl)c(-c2cc3[nH]nc(-c4cnn(CC(=O)N(C)C)c4)c3cn2)c1Cl [Example 37, 2-{4-[6-(2,6-Dichloro-3,5-dimethoxyphenyl)-1H-pyrazolo[4,3-c]pyridin-3-yl]-1H-pyrazol-1-yl}-N,N-dimethylacetamide]
< 0.1 µM: all assays above

COc1cc(OC)c(F)c(-c2ncc3c(-c4ccc5c(c4)CC(C(=O)N(C)C)O5)n[nH]c3n2)c1F (single isomer, unassigned) [Example 5, 5-[6-(2,6-Difluoro-3,5-dimethoxyphenyl)-1H-pyrazolo[3,4-d]pyrimidin-3-yl]-N,N-dimethyl-2,3-dihydro-1-benzofuran-2-carboxamide]
< 0.1 µM: all assays above

COc1cc(OC)c(F)c(-c2cc3[nH]nc(-c4cnn(CCO)c4)c3cn2)c1F [Example 88, 2-{4-[6-(2,6-Difluoro-3,5-dimethoxyphenyl)-1H-pyrazolo[4,3-c]pyridin-3-yl]-1H-pyrazol-1-yl}ethanol]
< 0.1 µM: all assays above

COc1cc(OC)c(F)c(-c2ccc3c(-c4cnn(C)c4)n[nH]c3n2)c1F [Example 72, 6-(2,6-Difluoro-3,5-dimethoxyphenyl)-3-(1-methyl-1H-pyrazol-4-yl)-1H-pyrazolo[3,4-b]pyridine]
< 0.1 µM: all assays above

COc1cc(OC)c(F)c(-c2ncc3c(-c4cnn(C)c4)n[nH]c3n2)c1F [Example 87, 6-(2,6-Difluoro-3,5-dimethoxyphenyl)-3-(1-methyl-1H-pyrazol-4-yl)-1H-pyrazolo[3,4-d]pyrimidine]
< 0.1 µM: all assays above

COc1cc(OC)c(Cl)c(-c2cc3[nH]nc(-c4cnn(CC(=O)NC5CCN(C)CC5)c4)c3cn2)c1Cl [Example 42, 2-{4-[6-(2,6-Dichloro-3,5-dimethoxyphenyl)-1H-pyrazolo[4,3-c]pyridin-3-yl]-1H-pyrazol-1-yl}-N-(1-methylpiperidin-4-yl)acetamide]
< 0.1 µM: all assays above

COc1cc(OC)c(F)c(-c2ncc3c(-c4ccc5c(c4)CN(C4CC4)C5=O)n[nH]c3n2)c1F [Example 21, 2-Cyclopropyl-5-[6-(2,6-difluoro-3,5-dimethoxyphenyl)-1H-pyrazolo[3,4-d]pyrimidin-3-yl]isoindolin-1-one]
< 0.1 µM: all assays above

CCN1Cc2cc(-c3n[nH]c4cc(-c5c(F)c(OC)cc(OC)c5Cl)ncc34)ccc2C1=O [Example 69, 5-[6-(2-chloro-6-fluoro-3,5-dimethoxyphenyl)-1H-pyrazolo[4,3-c]pyridin-3-yl]-2-ethylisoindolin-1-one]
< 0.1 µM: all assays above

COc1cc(OC)c(F)c(-c2cc3[nH]nc(-c4ccc(N5CCN(C)CC5)nc4)c3cn2)c1F [Example 26, 6-(2,6-Difluoro-3,5-dimethoxyphenyl)-3-[6-(4-methylpiperazin-1-yl)pyridin-3-yl]-1H-pyrazolo[4,3-c]pyridine]
< 0.1 µM: all assays above
